Assay results reported in patent US7950396B2, “Treatment for otitis externa” (priority 2006, dated 2011).

Experiments:
otitis externa [1] = experiment: Photodisinfection of otitis externa treatment site (Examples V to VII); format: in vivo
Protocol: A photosensitizing composition comprising of methylene blue at a concentration of about 0.1 wt % is applied to the otitis externa treatment site. Light at a wavelength range from about 650 nm to about 680 nm is applied to the photosensitizing composition located within the otitis externa treatment site for a period from about 6 minutes to about 10 minutes using a laser with power at about 80 mW. The otitis externa was ameliorated.
A photosensitizing composition comprising of methylene blue at a concentration range of from about 0.001 wt % to about 0.1 wt % is applied to the otitis externa treatment site. Light at a wavelength range from about 650 nm to about 680 nm is applied to the photosensitizing composition located within the treatment site for a period from about 1 minute to about 20 minutes using a laser with power at a range from about 50 mW to about 300 mW. The otitis externa was ameliorated.
A photosensitizing composition comprising of toluidine blue at a concentration range of from about 0.001% wt % to about 0.1 wt % is applied to the otitis externa treatment site. Light at a wavelength range from about 620 nm to about 650 nm is applied to the photosensitizing composition located within the otitis externa treatment site for a period from about 1 minute to about 20 minutes using a laser with power at a range from about 50 mW to about 300 mW. The otitis externa was ameliorated.
For Examples V to VII, it was shown that there is a general inverse relationship between (1) the photosensitizer concentration and (2) the photodisinfection treatment time and/or the amount of power required for the light source. For example, higher concentration of photosensitizer requires less treatment time and/or lower light source power. Conversely, lower concentration of photosensitizer requires longer treatment time and/or higher light source power. Also, less treatment time requires higher concentration of photosensitizer and/or higher light source power.

otitis externa [2] = experiment: Study on patients suffering otitis externa (photodisinfection, Periowave laser); format: in vivo, human
Protocol: A study was conducted on patients suffering otitis externa. During the study, a photosensitizing composition comprising of methylene blue at a concentration of about 0.01 wt % was applied using a cotton swab to the treatment site as shown in FIG. 37. Thereafter and referring to FIGS. 38-39, light at a wavelength range from about 665 nm to about 675 nm was applied to the photosensitizing composition located within the treatment site 64 for a period from about 3 minutes to about 5 minutes (3-5 repetitive one minute cycles) using the Periowave™ laser light system.

MRSA [3] = experiment: SEM evaluation of MRSA biofilms after photodisinfection; format: cell-based, Methicillin-resistant Staphylococcus aureus; settings: about 0.1 wt % methylene blue, about 10 s contact, 665-675 nm for about 30 seconds, Periowave laser
Protocol: (§1) Biofilms heavily colonized with one to four layers of MRSA organisms were contacted with a photosensitizing composition comprising methylene blue at a concentration of about 0.1 wt % for about 10 seconds and then illuminated at a wavelength of about 665 nm to about 675 nm for a period from about 30 seconds using the Periowave™ laser. Thereafter, these biofilms and the controlled MRSA biofilms (e.g., no photodisinfection treatment) were incubated overnight in 0.9 wt % saline and then fixed in 10 wt % Formalin for scanning electron microscope (SEM) evaluation.

E. coli [4] = experiment: Photodisinfection of E. coli biofilms in vitro (methylene blue plus Periowave laser); format: cell-based, Escherichia coli
Excerpt: (§2) Photodisinfection treatments using methods contemplated by the present invention have been tested against MRSA, Escherichia coli (E. coli), and Enterococcus fecalis (E. fecalis) in vitro and reached high levels of disinfection in within seconds to one minute. Photosensitizing composition comprising of methylene blue at various concentrations ranging from about 0.005 wt % to 0.1 wt % was applied to biofilms of MRSA, E. coli and E. fecalis for about ten seconds. These biofilms were then illuminated by a laser light system at a wavelength of about 665 nm to about 675 nm for a period from about 0 seconds to about 60 seconds (e.g., accumulated energy level of about 0 J/cm^2 to about 9 J/cm^2). The laser light system used was the Periowave™ system which includes a low-intensity laser with power at about 240 mW and the optical probe described in PCT Patent Publication No. WO2006115761.

E. fecalis = experiment: Photodisinfection of E. fecalis biofilms in vitro (methylene blue plus Periowave laser); format: cell-based, Enterococcus fecalis; settings: methylene blue and low power laser
Excerpt: as §2

E. coli [5] = experiment: SEM evaluation of E. coli biofilms after photodisinfection; format: cell-based, Escherichia coli; settings: about 0.1 wt % methylene blue, about 10 s contact, 665-675 nm for about 30 seconds, Periowave laser
Protocol: as §1, with “to three” for “to four”, “of Escherichia coli (E. coli)” for “of MRSA”, “controlled E. coli” for “controlled MRSA”, “incubated for three hours” for “incubated overnight”, “in 0.9%” for “in 0.9 wt %”, “in 10%” for “in 10 wt %”

MRSA [6] = experiment: Photodisinfection of MRSA biofilms in vitro (methylene blue plus Periowave laser); format: cell-based, Methicillin-resistant Staphylococcus aureus
Excerpt: as §2

[7] = at least 0.02 wt % methylene blue, about 10 s contact, laser 665-675 nm for at least 15 seconds (at least 2.25 J/cm^2), 240 mW
[8] = methylene blue and low power laser

| SMILES | outcome of otitis externa (otitis externa [1]; about 0.001 to 0.1 wt %, 620-650 nm for about 1 to 20 minutes, laser about 50 to 300 mW) | outcome of otitis externa, many patients (otitis externa [2]; about 0.01 wt % methylene blue by cotton swab, 665-675 nm for about 3 to 5 minutes (3-5 one minute cycles)) | outcome of otitis externa, patients with severe otitis externa (otitis externa [2]; same protocol, about 2 to about 5 additional treatments over about one to two weeks) | reduction of MRSA in SEM photograph vs controlled biofilm (MRSA [3]) | reduction of E. coli (logs) (E. coli [4]; [7]) | elimination of E. coli by photodisinfection (E. coli [4]; [8]) | elimination of E. Fecalis by photodisinfection (E. fecalis) | reduction of E. coli in SEM photograph vs controlled biofilm (E. coli [5]) | outcome of otitis externa (otitis externa [1]; about 0.001 to 0.1 wt %, 650-680 nm for about 1 to 20 minutes, laser about 50 to 300 mW) | outcome of otitis externa (otitis externa [1]; about 0.1 wt %, 650-680 nm for about 6 to 10 minutes, laser about 80 mW) | reduction of MRSA (logs) (MRSA [6]; [7]) | elimination of MRSA by photodisinfection (MRSA [6]; [8]) |
| --- | --- | --- | --- | --- | --- | --- | --- | --- | --- | --- | --- | --- |
| Cc1cc2nc3ccc(N(C)C)cc3[s+]c2cc1N.[Cl-] [toluidine blue] | ameliorated |  |  |  |  |  |  |  |  |  |  |  |
| CN(C)c1ccc2nc3ccc(=[N+](C)C)cc-3sc2c1 [methylene blue] |  | ameliorated | also ameliorated | substantial reduction of MRSA | at least three logs | effectively eliminated | effectively eliminated | substantial reduction of E. coli | ameliorated | ameliorated | at least three logs | effectively eliminated |
